From patent publication US5486595A, “Tumor necrosis factor inhibitors” (Centecor, Inc., priority 1994, dated 1996) come the findings set out here.

The structures appear in SMILES notation. Where a SMILES comes first, the peptide text is derived from it.

The test addresses T1, human TNFα (Homo sapiens, UniProt P01375).
T1 construct: purchased Biosource, Camarillo, Calif
Description: p55 Receptor/IgG Fusion Protein Binding Assay (inhibition of TNFα capture by p55-Ig coated plate). To be noted: peptide 1 mM; TNFα 25 ng/ml; read-out: inhibition of binding of TNFα to p55TNFr-IgG chimeric construct. On the procedure: This assay was designed to identify peptides which bind to human TNFα and thereby prevent the capture of the TNFα by a microtiter plate coated with p55-Ig fusion protein. A constant concentration of human TNFα is preincubated with the test peptide and then incubated on the p55-Ig coated microtiter wells. Bound TNFα is detected using a specific antisera and an alkaline phosphatase-conjugated probe.
A 96-well, U-bottom polyvinylchloride microtiter plate was coated with 50 μl/well of p55-Ig fusion protein at 5 μg/ml in 0.01M sodium phosphate, 0.15M sodium chloride (PBS) by incubation overnight at 4° C. or 2 hours at 37° C. The fusion protein, which consists of a p55 TNF receptor protein portion and an IgG portion, can be produced as disclosed in U.S. application Ser. No. 08/010,406 filed Jan. 29, 1993 which is incorporated herein by reference. The plate was washed three times with 0.05% Tween-20 in PBS, then blocked, by adding 150 μl/well of assay buffer (10 mM N-2-hydroxyethylpiperazine-N'-[…] (HEPES) pH 7.2, containing 0.1% porcine gelatin, 0.1% Tween-80, and 0.01% sodium azide) and continuing incubation for 1 hour at 37° C. or at 4° C. for 1-7 days.
Lyophilized peptides to be tested were weighed in tared 12×75 mm polystyrene tubes and reconstituted to a concentration of 1.2 mM with assay buffer. Each suspension was sonicated in a water bath for 1-5 minutes and vortexed 15-30 seconds to disperse large particles. Serial dilutions of each peptide suspension were prepared using assay buffer in a 96-well polystyrene microtiter plate. Additional wells received Fab fragment of the mouse/human monoclonal anti-human TNFα antibody cA2 (positive control) or assay buffer (negative control). […] The polystyrene dilution plate was then sealed and incubated 1 hour at room temperature on an orbital mixer set at moderate speed.
Following the sample preincubation, blocker was discarded from the p55-Ig coated plate and blotted dry. Aliquots (50 μl) of each peptide or control were transferred into duplicate wells on the p55-Ig coated plate which was then sealed and incubated i hour at 37° C. Duplicate wells containing only assay buffer were included as a plate blank. After incubation the p55-Ig plate was washed three times with 0.05% Tween-20 in PBS.
To detect TNFα captured by the p55-Ig plate, all wells were incubated in succession with polyclonal rabbit anti-human TNFα (Genzyme, Boston, Mass.; 1:500 in assay buffer, 50 μl/well), biotinylated goat anti-rabbit Ig (H&L) (Vector Laboratories, Burlingame, Calif.; 1 μg/ml in assay buffer, 50 μl/well) and streptavidin-alkaline phosphatase conjugate (Pierce, Rockford, Ill.; 1 μg/ml in assay buffer, 50 μl/well). All incubations were for 1 hour at 37° C. and after each incubation the plate was washed three times with 0.05% Tween-20 in PBS. Fifty microliters of alkaline phosphatase substrate solution (alkaline buffer (Sigma, St. Louis, Mo.) diluted 1:500 in deionized water plus one 5 mg tablet of p-nitrophenyl phosphate (Sigma, St. Louis, Mo.) per 5 ml of diluted buffer) was added to all wells and incubation continued for 20 minutes at room temperature. Color development was stopped by adding to all wells 50 μl of 3N sodium hydroxide. The optical density (OD) at 405 nm was measured on a microtiter plate reader (Molecular Devices Vmax plate reader), with the plate blank wells subtracted as background. The activity of each peptide was then expressed as the percent inhibition of TNFα capture by the p55-Ig plate, relative to the amount of TNFα captured in wells containing only assay buffer (negative control), as follows: % inhibition=100-((mean OD peptide/mean OD negative control)×100).
The inhibition of binding of TNFα to p55TNFr-IgG chimeric construct was performed as described above using several embodiments of the invention. The peptides were tested at a concentration of 1 mM.

T1 sequence (P01375 77-233 limits assumed): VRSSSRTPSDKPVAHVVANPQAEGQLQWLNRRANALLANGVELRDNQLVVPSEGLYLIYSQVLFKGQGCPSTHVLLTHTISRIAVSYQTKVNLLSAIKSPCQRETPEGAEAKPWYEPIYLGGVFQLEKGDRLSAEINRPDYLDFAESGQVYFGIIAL

As for `CC(=O)N[C@@H](CC(C)C)C(=O)N[C@@H](Cc1ccccc1)C(=O)N[C@@H](CCC(N)=O)C(=O)N[C@@H](C)C(=O)N[C@@H](Cc1ccccc1)C(=O)N[C@@H](CC(N)=O)C(=O)N[C@@H](C)C(=O)N[C@@H](CO)C(=O)N[C@@H](CC(C)C)C(=O)N[C@@H](C)C(=O)N[C@@H](CC(C)C)C(=O)N[C@@H](CC(N)=O)C(=O)NCC(=O)N[C@H](C(=O)N[C@H](C(N)=O)C(C)C)[C@@H](C)O` [SEQ ID NO:12, Acetyl-leucyl-phenylalanyl-glutaminyl-alanyl-phenylalanyl-asparaginyl-alanyl-seryl-leucyl-alanyl-leucyl-asparaginyl-glycyl-threonyl-valine Amide] (Ac-LFQAFNASLALNGTV-NH2), the inhibition at 1000 µM is 40%.

With `CC(=O)N[C@@H](C)C(=O)N[C@@H](Cc1ccccc1)C(=O)N[C@@H](CC(N)=O)C(=O)N[C@@H](C)C(=O)N[C@@H](CO)C(=O)N[C@@H](CC(C)C)C(=O)N[C@@H](C)C(=O)N[C@@H](CC(C)C)C(=O)N[C@@H](CC(N)=O)C(=O)NCC(=O)N[C@H](C(=O)N[C@H](C(=O)N[C@@H](Cc1c[nH]cn1)C(=O)N[C@@H](CC(C)C)C(=O)N[C@@H](CO)C(N)=O)C(C)C)[C@@H](C)O` [SEQ ID NO:13, Acetyl-alanyl-phenylalanyl-asparaginyl-alanyl-seryl-leucyl-alanyl-leucyl-asparaginyl-glycyl-threonyl-valyl-histidyl-leucyl-serine Amide] (Ac-AFNASLALNGTVHLS-NH2), the inhibition at 1000 µM is 34%. `CC(C)C[C@H](NC(=O)[C@H](C)NC(=O)[C@H](CC(C)C)NC(=O)[C@H](CO)NC(=O)[C@H](C)NC(=O)[C@H](CC(N)=O)NC(=O)[C@H](Cc1ccccc1)NC(=O)[C@H](C)N)C(=O)N[C@@H](CC(N)=O)C(=O)NCC(=O)N[C@H](C(=O)N[C@H](C(=O)N[C@@H](Cc1c[nH]cn1)C(=O)N[C@@H](CC(C)C)C(=O)N[C@@H](CO)C(N)=O)C(C)C)[C@@H](C)O` [SEQ ID NO:14] (H-AFNASLALNGTVHLS-NH2): the inhibition at 1000 µM came to 29%. Turning to `CC(C)C[C@H](NC(=O)[C@H](Cc1ccccc1)NC(=O)[C@H](Cc1ccccc1)NC(=O)CNC(=O)[C@H](C)NC(=O)[C@H](Cc1c[nH]cn1)NC(=O)[C@H](C)NC(=O)[C@@H](NC(=O)[C@H](C)NC(=O)[C@@H](NC(=O)[C@@H](NC(=O)[C@H](CC(N)=O)NC(=O)[C@H](CCC(N)=O)NC(=O)[C@H](CCCCN)NC(=O)[C@H](CCC(=O)O)NC(=O)[C@@H](N)CCC(N)=O)[C@@H](C)O)C(C)C)[C@@H](C)O)C(=O)N[C@@H](CCCNC(=N)N)C(=O)N[C@@H](CCC(=O)O)C(=O)N[C@@H](CC(N)=O)C(=O)N[C@@H](CCC(=O)O)C(N)=O` [SEQ ID NO:15, Glutaminyl-glutamyl-lysyl-glutaminyl-asparaginyl-threonyl-valyl-alanyl-threonyl-alanyl-histidyl-alanyl-glycyl-phenylalanyl-phenylalanyl-leucyl-arginyl-glutamyl-asparaginyl-glutamic Acid Amide] (H-QEKQNTVATAHAGFFLRENE-NH2), the inhibition at 1000 µM is 48%. For `CC(C)C[C@H](NC(=O)[C@H](Cc1ccccc1)NC(=O)[C@H](Cc1ccccc1)NC(=O)CNC(=O)[C@H](C)NC(=O)[C@H](Cc1c[nH]cn1)NC(=O)[C@H](C)NC(=O)[C@@H](NC(=O)[C@H](C)NC(=O)[C@@H](NC(=O)[C@@H](NC(=O)[C@H](CC(N)=O)NC(=O)[C@H](CCC(N)=O)NC(=O)[C@@H](N)CCCCN)[C@@H](C)O)C(C)C)[C@@H](C)O)C(=O)N[C@@H](CCCNC(=N)N)C(N)=O` [SEQ ID NO:16, Lysyl-glutaminyl-asparaginyl-threonyl-valyl-alanyl-threonyl-alanyl-histidyl-alanyl-glycyl-phenylalanyl-phenylalanyl-leucyl-arginine Amide] (H-KQNTVATAHAGFFLR-NH2), the inhibition at 1000 µM turned out to be 48%. In the case of `CC(C)C[C@H](NC(=O)[C@H](Cc1ccccc1)NC(=O)[C@H](Cc1ccccc1)NC(=O)CNC(=O)[C@H](C)NC(=O)[C@H](Cc1c[nH]cn1)NC(=O)[C@H](C)NC(=O)[C@@H](NC(=O)[C@H](C)NC(=O)[C@@H](NC(=O)[C@@H](N)[C@@H](C)O)C(C)C)[C@@H](C)O)C(=O)N[C@@H](CCCNC(=N)N)C(=O)N[C@@H](CCC(=O)O)C(=O)N[C@@H](CC(N)=O)C(=O)N[C@@H](CCC(=O)O)C(N)=O` [SEQ ID NO:17] (H-TVATAHAGFFLRENE-NH2), the inhibition at 1000 µM is 59%. The figure for `CC(C)C[C@H](NC(=O)[C@H](Cc1ccccc1)NC(=O)[C@H](Cc1ccccc1)NC(=O)CNC(=O)[C@H](C)NC(=O)[C@H](Cc1c[nH]cn1)NC(=O)[C@H](C)NC(=O)[C@@H](N)[C@@H](C)O)C(=O)N[C@@H](CCCNC(=N)N)C(=O)N[C@@H](CCC(=O)O)C(=O)N[C@@H](CC(N)=O)C(=O)N[C@@H](CCC(=O)O)C(=O)N[C@@H](C)C(=O)N[C@H](C(=O)N[C@@H](CO)C(N)=O)C(C)C` [SEQ ID NO:18] (H-TAHAGFFLRENEAVS-NH2) is 68%; for `CC(C)C[C@H](NC(=O)[C@H](Cc1ccccc1)NC(=O)[C@H](Cc1ccccc1)NC(=O)CNC(=O)[C@H](C)N)C(=O)N[C@@H](CCCNC(=N)N)C(=O)N[C@@H](CCC(=O)O)C(=O)N[C@@H](CC(N)=O)C(=O)N[C@@H](CCC(=O)O)C(=O)N[C@@H](C)C(=O)N[C@H](C(=O)N[C@@H](CO)C(=O)N[C@@H](C)C(=O)N[C@@H](CO)C(=O)N[C@@H](CC(N)=O)C(N)=O)C(C)C` [SEQ ID NO:19] (H-AGFFLRENEAVSASN-NH2) it is 53%. With `CC(C)C[C@H](NC(=O)[C@H](CCCCN)NC(=O)[C@@H](NC(=O)[C@H](CS)NC(=O)[C@H](CCC(=O)O)NC(=O)[C@H](CC(C)C)NC(=O)[C@H](CO)NC(=O)[C@H](CCCCN)NC(=O)[C@H](CCCCN)NC(=O)[C@H](CS)NC(=O)[C@H](CC(N)=O)NC(=O)[C@H](CO)NC(=O)[C@H](CS)NC(=O)[C@H](CO)NC(=O)[C@@H](NC(=O)[C@H](CS)NC(=O)[C@H](CCC(=O)O)NC(=O)[C@H](CC(N)=O)NC(=O)[C@H](CCC(=O)O)NC(=O)[C@@H](N)CCCNC(=N)N)C(C)C)[C@@H](C)O)C(=O)O` [SEQ ID NO:20, Arginyl-glutamyl-asparaginyl-glutamyl-cysteinyl-valyl-seryl-cysteinyl-seryl-asparaginyl-cysteinyl-lysyl-lysyl-seryl-leucyl-glutamyl-cysteinyl-threonyl-lysyl-leucine] (H-RENECVSCSNCKKSLECTKL-OH), the inhibition at 1000 µM amounted to 26%. For `CC[C@H](C)[C@H](NC(=O)[C@H](CCC(N)=O)NC(=O)[C@@H]1CCCN1C(=O)[C@H](CC(C)C)NC(=O)[C@H](C)NC(=O)[C@H](CC(C)C)NC(=O)[C@H](CCCCN)NC(=O)[C@@H](NC(=O)[C@H](C)NC(=O)[C@H](CCC(=O)O)NC(=O)[C@H](CC(C)C)NC(=O)[C@@H](N)CO)[C@@H](C)O)C(=O)N[C@@H](CCC(=O)O)C(=O)N[C@@H](CC(N)=O)C(=O)N[C@H](C(N)=O)C(C)C` [SEQ ID NO:21, Seryl-leucyl-glutamyl-alanyl-threonyl-lysyl-leucyl-alanyl-leucyl-prolyl-glutaminyl-isoleucyl-glutamyl-asparaginyl-valine Amide] (H-SLEATKLALPQIENV-NH2) the value was 50%.

The inhibition is how much of the control response was suppressed.
